{"source": "patent EP1228097B1", "about": "“ANTIMICROBIAL ACTIVITY OF THE FIRST CATIONIC CLUSTER OF HUMAN LACTOFERRIN” (priority 1999, dated 2005)", "key": {"[1]": {"test_system": "L. monocytogenes", "assay": "in vitro assay for antibacterial activity (number of viable bacteria)", "format": "cell-based, Listeria monocytogenes strain EGD", "settings": "for killing of L. monocytogenes (result in words): dose-effect studies, proteins in PBS-Tw, synthetic peptides in NaPB-TSB", "description": "(§1) Listeria monocytogenes strain EGD, Klebsiella pneumoniae (43816), and Escherichia coli O54 were purchased from the American Type Culture Collection (Rockville, MD). Antibiotic resistant S. aureus, K. pneumoniae and E. coli were cultured overnight in nutrient broth (Oxoid, Basingstoke, UK) at 37°C, diluted in tryptase soya broth (TSB, Oxoid) and cultured for an additional 2 h in a shaking waterbath at 37 °C. L. monocytogenes was cultured overnight in brain heart infusion broth (BHI, Oxoid) at 37°C, diluted and cultured for an additional 2 h in a shaking waterbath at 37°C.\n(§2) In short, bacteria were washed with phosphate-buffered saline (PBS) (pH 7.4) and diluted to a concentration of approximately 2x10^6 CFU/ml of phosphate-buffered saline (pH 6.0) supplemented with 0.1 % (v/v) Tween-20 (hereafter designated as PBS-Tw). […] At various time intervals (range 0-4 h) after incubation at 37 °C the number of viable bacteria was determined microbiologically. As negative controls, bovine serum albumin (BSA; Sigma) or no peptide were included."}, "[2]": {"test_system": "antibiotic resistant S. aureus", "assay": "in vitro assay for antibacterial activity (number of viable bacteria)", "format": "cell-based, Staphylococcus aureus strain 2141", "settings": "for killing of antibiotic resistant S. aureus (result in words): dose-effect studies, proteins in PBS-Tw, synthetic peptides in NaPB-TSB", "description": "as §1, §2"}, "[3]": {"test_system": "K. pneumoniae", "assay": "in vitro assay for antibacterial activity (number of viable bacteria)", "format": "cell-based, Klebsiella pneumoniae (43816)", "settings": "proteins in PBS-Tw, synthetic peptides in NaPB-TSB", "description": "as §1, §2"}, "[4]": {"test_system": "E. coli", "assay": "in vitro assay for antibacterial activity (number of viable bacteria)", "format": "cell-based, Escherichia coli O54", "settings": "synthetic peptides in NaPB-TSB, 1 h at 37 °C", "description": "as §1\n[…] […] At various time intervals (range 0-4 h) after incubation at 37 °C the number of viable bacteria was determined microbiologically. As negative controls, bovine serum albumin (BSA; Sigma) or no peptide were included."}, "[5]": {"test_system": "bacteria", "assay": "in vitro assay for antibacterial activity, bacteria not specified", "format": "cell-based", "settings": "L. monocytogenes, antibiotic resistant S. aureus, K. pneumoniae, E. coli (FIGS. 2A-2D); 7 µM, 1 h at 37 °C", "description": "as §1\nas §2, with “At various time intervals (range 0-4 h) after incubation at 37 °C the number of viable bacteria was determined microbiologically.” left out"}, "[6]": {"test_system": "antibiotic resistant S. aureus", "assay": "experimental thigh muscle infection", "format": "in vivo, mice", "settings": "for amount with which maximum effects on the number of viable bacteria were seen: mice infected with antibiotic resistant S. aureus, i.v. injection 24 h after infection, within 24 h after injection; for antibacterial activity in infected mice (result in words): mice with thigh muscle infection with antibiotic resistant S. aureus", "description": "All animal studies were done in compliance with the LUMC Ethical Committee and Dutch laws related to the conduct of animal experiments. […] In short, specific pathogen-free, male, Swiss mice weighing 20-25 g (Broekman Institute, Someren, The Netherlands) were anaesthetized with a single intraperitoneal injection of 0.1 ml of saline containing 1 mg fluanisone and 0.03 mg fentanyl citrate (Hypnorm, Janssen Pharmaceutics, Tilburg, The Netherlands). Preceding scintigraphy, a subcutaneous injection of 0.1 ml, containing 0.2 mg diazepam (Valium, Hoffmann-La Roche, Mijdrecht. The Netherlands) was administered. Immediately thereafter, 1x10^7 CFU of antibiotic resistant S. aureus or K. pneumoniae in 0.1 ml of saline were injected into the right thigh muscle. […] As a control, mice were injected with 0.2 ml of saline containing BSA or saline without any peptide. […] Next, the infected thigh muscles were removed and, after weighing, homogenized in 4 ml of PBS. Appropriate dilutions of the homogenates were applied onto diagnostic sensitivity test plates (Oxoid), and the number of colonies counted after an overnight culture at 37 °C. Results are expressed as the number of CFUs per gram of infected tissue. All negative cultures were assigned the values of 100 CFU/ml of homogenate, which is the lower limit of detection."}, "[7]": {"assay": "pharmacology of 99mTc-labelled protein/peptides by scintigraphy (clearance, organ uptake, amount at the site of infection)", "format": "in vivo, mice", "settings": "for Uptake by bladder / Uptake by kidneys / Uptake by liver: 1 nmole 99mTc-labelled, mice infected with antibiotic resistant S. aureus; for mean t1/2 (removal from the circulation): mouse, in vivo, iv", "text": "Labeling yields amounted to 88-95%."}}, "data": [{"substance": "hLF(2-11): residues 2 to 11 inclusively from the N-terminal region of hLF (RRRSVQWCAV; UniProt P02788 21-30, looked up, fragment)", "values": [{"measurement": "killing of L. monocytogenes (result in words)", "setting": "[1]", "value": "considerably (p<0.05) more efficient than hLF(3-11)"}, {"measurement": "killing of antibiotic resistant S. aureus (result in words)", "setting": "[2]", "value": "considerably (p<0.05) more efficient than hLF(3-11)"}, {"measurement": "killing of K. pneumoniae (result in words)", "setting": "[3]", "value": "killed"}, {"measurement": "killing of E. coli by synthetic peptides (result in words)", "setting": "[4]", "value": "killed"}, {"measurement": "bactericidal activity against the various bacteria", "setting": "[5]", "value": "displayed bactericidal activity"}]}, {"substance": "hLF(5-11): synthetic fragment of hLF(1-11): residues 5-11 of hLF (SVQWCAV; UniProt P02788 24-30, looked up, fragment)", "values": [{"measurement": "bactericidal activity against the various bacteria", "setting": "[5]", "value": "ineffective"}]}, {"substance": "GRRRRSVQWCA [hLF(1-11), Mr 1,374]", "values": [{"measurement": "bactericidal efficiency relative to hLF(21-31)", "setting": "[1]; L. monocytogenes, FIGS. 3A-3C", "value": "at least ten times more (p<0.05) efficient than hLF(21-31)"}, {"measurement": "killing of L. monocytogenes (result in words)", "setting": "[1]", "value": "considerably (p<0.05) more efficient than hLF(3-11)"}, {"measurement": "bactericidal efficiency relative to hLF(21-31)", "setting": "[2]; antibiotic resistant S. aureus, FIGS. 3A-3C", "value": "at least ten times more (p<0.05) efficient than hLF(21-31)"}, {"measurement": "killing of antibiotic resistant S. aureus (result in words)", "setting": "[2]", "value": "considerably (p<0.05) more efficient than hLF(3-11)"}, {"measurement": "killing of K. pneumoniae (result in words)", "setting": "[3]", "value": "killed"}, {"measurement": "killing of E. coli by synthetic peptides (result in words)", "setting": "[4]", "value": "killed"}, {"measurement": "bactericidal activity against the various bacteria", "setting": "[5]", "value": "displayed bactericidal activity"}, {"measurement": "amount with which maximum effects on the number of viable bacteria were seen", "setting": "[6]", "value": 0.1, "unit": "nmol"}, {"measurement": "antibacterial activity in infected mice (result in words)", "setting": "[6]", "value": "much more effective than hLF(4-11)"}, {"measurement": "Uptake by bladder", "setting": "[7]; interval 1 min", "value": "10±1.5", "unit": "% ID"}, {"measurement": "Uptake by kidneys", "setting": "[7]; interval 1 min", "value": "18±3.8", "unit": "% ID"}, {"measurement": "Uptake by liver", "setting": "[7]; interval 1 min", "value": "20±1.6", "unit": "% ID"}, {"measurement": "Uptake by bladder", "setting": "[7]; interval 15 min", "value": "11±7.5", "unit": "% ID"}, {"measurement": "Uptake by kidneys", "setting": "[7]; interval 15 min", "value": "21±9.3", "unit": "% ID"}, {"measurement": "Uptake by liver", "setting": "[7]; interval 15 min", "value": "20±4.9", "unit": "% ID"}, {"measurement": "Uptake by bladder", "setting": "[7]; interval 30 min", "value": "21±5.7", "unit": "% ID"}, {"measurement": "Uptake by kidneys", "setting": "[7]; interval 30 min", "value": "17±5.7", "unit": "% ID"}, {"measurement": "Uptake by liver", "setting": "[7]; interval 30 min", "value": "20±1.6", "unit": "% ID"}, {"measurement": "Uptake by bladder", "setting": "[7]; interval 60 min", "value": "22±5.6", "unit": "% ID"}, {"measurement": "Uptake by kidneys", "setting": "[7]; interval 60 min", "value": "14±0.4", "unit": "% ID"}, {"measurement": "Uptake by liver", "setting": "[7]; interval 60 min", "value": "27±0.6", "unit": "% ID"}, {"measurement": "mean t1/2 (removal from the circulation)", "setting": "[7]", "value": "~9", "unit": "min"}, {"measurement": "amount of radiolabeled peptide at the site of infection", "setting": "[7]; within the first min after injection of 1 nmole, antibiotic resistant S. aureus-infected mice", "value": "1-1.5 % of injected dose (ID)"}]}, {"substance": "hLF(6-11): synthetic fragment of hLF(1-11): residues 6-11 of hLF (VQWCAV; UniProt P02788 25-30, looked up, fragment)", "values": [{"measurement": "bactericidal activity against the various bacteria", "setting": "[5]", "value": "ineffective"}]}, {"substance": "hLF(4-11): synthetic fragment of hLF(1-11): residues 4-11 of hLF (RSVQWCAV; UniProt P02788 23-30, looked up, fragment)", "values": [{"measurement": "bactericidal activity against the various bacteria", "setting": "[5]", "value": "displayed bactericidal activity"}, {"measurement": "antibacterial activity in infected mice (result in words)", "setting": "[6]", "value": "some antibacterial activity"}, {"measurement": "mean t1/2 (removal from the circulation)", "setting": "[7]", "value": "approximately 1 min"}]}, {"substance": "hLF(3-11): synthetic fragment of hLF(1-11): residues 3-11 of hLF (RRSVQWCAV; UniProt P02788 22-30, looked up, fragment)", "values": [{"measurement": "killing of L. monocytogenes (result in words)", "setting": "[1]", "value": "significantly (p<0.05) more efficient than hLF(4-11)"}, {"measurement": "killing of antibiotic resistant S. aureus (result in words)", "setting": "[2]", "value": "significantly (p<0.05) more efficient than hLF(4-11)"}, {"measurement": "killing of K. pneumoniae (result in words)", "setting": "[3]", "value": "killed"}, {"measurement": "killing of E. coli by synthetic peptides (result in words)", "setting": "[4]", "value": "killed"}, {"measurement": "bactericidal activity against the various bacteria", "setting": "[5]", "value": "displayed bactericidal activity"}]}, {"substance": "FQWQRNMRKVR [hLF(21-31), Mr 1,548; includes the second cationic domain, reference compound]", "values": [{"measurement": "amount with which maximum effects on the number of viable bacteria were seen", "setting": "[6]", "value": 10, "unit": "nmol"}, {"measurement": "antibacterial activity in infected mice (result in words)", "setting": "[6]", "value": "less effective than hLF(1-11)"}, {"measurement": "mean t1/2 (removal from the circulation)", "setting": "[7]", "value": "~2", "unit": "min"}]}]}
